Key:
Assay type in all cases: functional
NCI/ADR-RES [1] = assay: Cytotoxicity against human MCF7ADR cells assessed as cell survival rate at 5 uM incubated for 48 hrs by CCK8 assay relative to control
MCF7 = assay: Cytotoxicity against human MCF7 cells assessed as cell survival rate at 5 uM incubated for 48 hrs by CCK8 assay relative to control
NCI/ADR-RES [2] = assay: Reversal activity against doxorubicin-mediated resistance in human MCF7ADR cells assessed as reversal fold by measuring ratio of doxorubicin IC50 to doxorubicin IC50 in presence of test compound at 5 uM incubated for 48 hrs by CCK8 assay

Compound `COc1ccc(CCN(C)CCCC(C#N)(c2ccc(OC)c(OC)c2)C(C)C)cc1OC` (stereo not drawn) has an Activity (NCI/ADR-RES [1]) of 75% and an Activity (MCF7) of 99.6%.
With `COc1cc2c(cc1OC)CN(C(=O)c1ccc(-c3cccc(NC(=O)c4cccc(Cl)c4)c3)o1)CC2` the Activity (NCI/ADR-RES [1]) was 97.5%, the Activity (MCF7) was 85.3% and the “fold change (FC)” value (NCI/ADR-RES [2]) was 41.
`COc1cc2c(cc1OC)CN(C(=O)c1ccc(-c3ccc(NC(=O)c4ccc(C(C)(C)C)cc4)cc3)o1)CC2` was tested, and the Activity (NCI/ADR-RES [1]) was 61.1%, the Activity (MCF7) was 44.9% and the “fold change (FC)” value (NCI/ADR-RES [2]) was 164.
In the case of `COc1cc2c(cc1OC)CN(C(=O)c1ccc(-c3ccc(NC(=O)c4ccccc4F)cc3)o1)CC2`, the Activity (NCI/ADR-RES [1]) is reported as 99.2%, the Activity (MCF7) is reported as 77.1% and the “fold change (FC)” value (NCI/ADR-RES [2]) is reported as 11.
For `COc1cccc(C(=O)Nc2cccc(-c3ccc(C(=O)N4CCc5cc(OC)c(OC)cc5C4)o3)c2)c1`, the Activity (NCI/ADR-RES [1]) was 75%, the Activity (MCF7) was 59.4% and the “fold change (FC)” value (NCI/ADR-RES [2]) was 59.8.
`COc1ccc(NC(=O)Nc2ccc(-c3ccc(C(=O)N4CCc5cc(OC)c(OC)cc5C4)o3)cc2)cc1` showed an Activity (NCI/ADR-RES [1]) of 98.2% and an Activity (MCF7) of 99.2%.
With `COc1cc2c(cc1OC)CN(C(=O)c1ccc(-c3ccccc3NC(=O)c3ccccc3Cl)o1)CC2` the Activity (NCI/ADR-RES [1]) was 96.3%, the Activity (MCF7) was 66.5% and the “fold change (FC)” value (NCI/ADR-RES [2]) was 29.2.
`COc1cc2c(cc1OC)CN(C(=O)c1ccc(-c3ccccc3NC(=O)c3ccccc3)o1)CC2` was tested, and the Activity (NCI/ADR-RES [1]) was 70.9% and the “fold change (FC)” value (NCI/ADR-RES [2]) was 7.5.
`COc1cc2c(cc1OC)CN(C(=O)c1ccc(-c3ccc(NC(=O)c4ccccc4[N+](=O)[O-])cc3)o1)CC2` was tested, and the Activity (NCI/ADR-RES [1]) was 99.5%, the Activity (MCF7) was 97.8% and the “fold change (FC)” value (NCI/ADR-RES [2]) was 18.6.
In the case of `COc1cc(OC)cc(C(=O)Nc2ccccc2-c2ccc(C(=O)N3CCc4cc(OC)c(OC)cc4C3)o2)c1`, the Activity (NCI/ADR-RES [1]) is reported as 97.3%, the Activity (MCF7) is reported as 70.5% and the “fold change (FC)” value (NCI/ADR-RES [2]) is reported as 13.1.
With `COc1cc2c(cc1OC)CN(C(=O)c1ccc(-c3ccc(NC(=O)c4ccc(N(C)C)cc4)cc3)o1)CC2` the Activity (NCI/ADR-RES [1]) was 71.8%, the Activity (MCF7) was 98.6% and the “fold change (FC)” value (NCI/ADR-RES [2]) was 40.
For `COc1cc2c(cc1OC)CN(C(=O)c1ccc(-c3cccc(NC(=O)c4cccs4)c3)o1)CC2`, the Activity (NCI/ADR-RES [1]) was 61.4% and the “fold change (FC)” value (NCI/ADR-RES [2]) was 46.6.
`COc1cc2c(cc1OC)CN(CCc1ccc(NC(=O)c3cc(OC)c(OC)cc3NC(=O)c3cnc4ccccc4c3)cc1)CC2` was tested, and the Activity (NCI/ADR-RES [1]) was 46.7%, the Activity (MCF7) was 80.7% and the “fold change (FC)” value (NCI/ADR-RES [2]) was 221.1.
`COc1cc2c(cc1OC)CN(C(=O)c1ccc(-c3ccccc3NC(=O)c3cccc(Cl)c3)o1)CC2` was tested, and the Activity (NCI/ADR-RES [1]) was 80.4%, the Activity (MCF7) was 53% and the “fold change (FC)” value (NCI/ADR-RES [2]) was 45.
In the case of `COc1cc2c(cc1OC)CN(C(=O)c1ccc(-c3ccc(NC(=O)c4ccc(F)cc4)cc3)o1)CC2`, the Activity (NCI/ADR-RES [1]) is reported as 70.6%, the Activity (MCF7) is reported as 53.6% and the “fold change (FC)” value (NCI/ADR-RES [2]) is reported as 53.5.
In the case of `COc1cccc(C(=O)Nc2ccc(-c3ccc(C(=O)N4CCc5cc(OC)c(OC)cc5C4)o3)cc2)c1`, the Activity (NCI/ADR-RES [1]) is reported as 77.1%, the Activity (MCF7) is reported as 81.2% and the “fold change (FC)” value (NCI/ADR-RES [2]) is reported as 97.8.
In the case of `C/C=C/C[C@@H](C)[C@@H](O)[C@H]1C(=O)N[C@@H](CC)C(=O)N(C)CC(=O)N(C)[C@@H](CC(C)C)C(=O)N[C@@H](C(C)C)C(=O)N(C)[C@@H](CC(C)C)C(=O)N[C@@H](C)C(=O)N[C@H](C)C(=O)N(C)[C@@H](CC(C)C)C(=O)N(C)[C@@H](CC(C)C)C(=O)N(C)[C@@H](C(C)C)C(=O)N1C` [CYCLOSPORINE], the Activity (NCI/ADR-RES [1]) is reported as 89.4%, the Activity (MCF7) is reported as 87.5% and the “fold change (FC)” value (NCI/ADR-RES [2]) is reported as 59.1.
With `COc1cc(OC)cc(C(=O)Nc2cccc(-c3ccc(C(=O)N4CCc5cc(OC)c(OC)cc5C4)o3)c2)c1` the Activity (NCI/ADR-RES [1]) was 73.9%, the Activity (MCF7) was 63% and the “fold change (FC)” value (NCI/ADR-RES [2]) was 30.1.
With `COc1cc2c(cc1OC)CN(C(=O)c1ccc(-c3ccc(NC(=O)c4cccc(Cl)c4)cc3)o1)CC2` the Activity (NCI/ADR-RES [1]) was 83.3%, the Activity (MCF7) was 74.8% and the “fold change (FC)” value (NCI/ADR-RES [2]) was 267.6.
With `COc1cc2c(cc1OC)CN(C(=O)c1ccc(-c3ccc(NC(=O)c4ccc([N+](=O)[O-])cc4)cc3)o1)CC2` the Activity (NCI/ADR-RES [1]) was 82.2%, the Activity (MCF7) was 68.9% and the “fold change (FC)” value (NCI/ADR-RES [2]) was 50.9.
With `COc1ccc(C(=O)Nc2cccc(-c3ccc(C(=O)N4CCc5cc(OC)c(OC)cc5C4)o3)c2)c(OC)c1` the Activity (NCI/ADR-RES [1]) was 64.9%, the Activity (MCF7) was 84.7% and the “fold change (FC)” value (NCI/ADR-RES [2]) was 17.5.
With `COc1cc2c(cc1OC)CN(C(=O)c1ccc(-c3cccc(NC(=O)c4ccccc4)c3)o1)CC2` the Activity (NCI/ADR-RES [1]) was 76.1% and the “fold change (FC)” value (NCI/ADR-RES [2]) was 45.8.
`COc1cc2c(cc1OC)CN(C(=O)c1ccc(-c3cccc(NC(=O)c4ccccc4OC)c3)o1)CC2` was tested, and the Activity (NCI/ADR-RES [1]) was 65%, the Activity (MCF7) was 53.6% and the “fold change (FC)” value (NCI/ADR-RES [2]) was 44.2.
In the case of `COc1ccc(-c2ccc(C(=O)N3CCc4cc(OC)c(OC)cc4C3)o2)cc1`, the Activity (NCI/ADR-RES [1]) is reported as 94.1% and the “fold change (FC)” value (NCI/ADR-RES [2]) is reported as 9.1.
`COc1cc2c(cc1OC)CN(C(=O)c1ccc(-c3ccc(NC(=O)c4ccccc4OC)cc3)o1)CC2` was tested, and the Activity (NCI/ADR-RES [1]) was 98.6%, the Activity (MCF7) was 99.7% and the “fold change (FC)” value (NCI/ADR-RES [2]) was 24.2.
For `COc1cc2c(cc1OC)CN(C(=O)c1ccc(-c3ccc(NC(=O)c4ccc(Cl)cc4)cc3)o1)CC2`, the Activity (NCI/ADR-RES [1]) was 79.8%, the Activity (MCF7) was 50.1% and the “fold change (FC)” value (NCI/ADR-RES [2]) was 124.
`COc1cc2c(cc1OC)CN(C(=O)c1ccc(-c3ccccc3NC(=O)c3ccccc3OC)o1)CC2` was tested, and the Activity (NCI/ADR-RES [1]) was 74.5%, the Activity (MCF7) was 81.2% and the “fold change (FC)” value (NCI/ADR-RES [2]) was 20.8.
For `COc1cc2c(cc1OC)CN(C(=O)c1ccc(-c3cccc(NC(=O)c4ccc(Cl)cc4)c3)o1)CC2`, the Activity (NCI/ADR-RES [1]) was 85.5%, the Activity (MCF7) was 88.1% and the “fold change (FC)” value (NCI/ADR-RES [2]) was 18.
In the case of `COc1cc2c(cc1OC)CN(C(=O)c1ccc(-c3ccc(NC(=O)c4ccccc4Cl)cc3)o1)CC2`, the Activity (NCI/ADR-RES [1]) is reported as 82.5%, the Activity (MCF7) is reported as 65.5% and the “fold change (FC)” value (NCI/ADR-RES [2]) is reported as 66.9.
For `COc1cc2c(cc1OC)CN(C(=O)c1ccc(-c3ccc(NC(=O)c4cccc(F)c4)cc3)o1)CC2`, the Activity (NCI/ADR-RES [1]) was 78.2%, the Activity (MCF7) was 75.1% and the “fold change (FC)” value (NCI/ADR-RES [2]) was 19.6.
In the case of `COc1ccc(S(=O)(=O)N(c2ccc(-c3ccc(C(=O)N4CCc5cc(OC)c(OC)cc5C4)o3)cc2)S(=O)(=O)c2ccc(OC)cc2)cc1`, the Activity (NCI/ADR-RES [1]) is reported as 94.6%, the Activity (MCF7) is reported as 92.6% and the “fold change (FC)” value (NCI/ADR-RES [2]) is reported as 21.9.
With `COc1cc2c(cc1OC)CN(C(=O)c1ccc(-c3ccc(NC(=O)c4ccc(-c5ccccc5)cc4)cc3)o1)CC2` the Activity (NCI/ADR-RES [1]) was 95%, the Activity (MCF7) was 98.7% and the “fold change (FC)” value (NCI/ADR-RES [2]) was 17.1.
In the case of `COc1cc2c(cc1OC)CN(C(=O)c1ccc(-c3ccc(NC(=O)c4c(F)c(F)c(F)c(F)c4F)cc3)o1)CC2`, the Activity (NCI/ADR-RES [1]) is reported as 98.2%, the Activity (MCF7) is reported as 92.4% and the “fold change (FC)” value (NCI/ADR-RES [2]) is reported as 45.4.
`COc1ccc(C(=O)Nc2ccc(-c3ccc(C(=O)N4CCc5cc(OC)c(OC)cc5C4)o3)cc2)c(OC)c1` was tested, and the Activity (NCI/ADR-RES [1]) was 66.7%, the Activity (MCF7) was 63.7% and the “fold change (FC)” value (NCI/ADR-RES [2]) was 36.8.
With `COc1ccc(CNc2ccc(-c3ccc(C(=O)N4CCc5cc(OC)c(OC)cc5C4)o3)cc2)cc1` the Activity (NCI/ADR-RES [1]) was 98.2%, the Activity (MCF7) was 99.7% and the “fold change (FC)” value (NCI/ADR-RES [2]) was 5.2.
`COc1cc2c(cc1OC)CN(C(=O)c1ccc(-c3ccccc3NC(=O)c3cccc([N+](=O)[O-])c3)o1)CC2` was tested, and the Activity (NCI/ADR-RES [1]) was 66.2%, the Activity (MCF7) was 67.5% and the “fold change (FC)” value (NCI/ADR-RES [2]) was 6.1.
In the case of `COc1cc2c(cc1OC)CN(C(=O)c1ccc(-c3cccc(NC(=O)c4cccc([N+](=O)[O-])c4)c3)o1)CC2`, the Activity (NCI/ADR-RES [1]) is reported as 76.5%, the Activity (MCF7) is reported as 69.6% and the “fold change (FC)” value (NCI/ADR-RES [2]) is reported as 23.
`COc1cc2c(cc1OC)CN(C(=O)c1ccc(-c3ccc(NC(=O)c4ccc(Br)cc4)cc3)o1)CC2` was tested, and the Activity (NCI/ADR-RES [1]) was 96.3%, the Activity (MCF7) was 97.2% and the “fold change (FC)” value (NCI/ADR-RES [2]) was 48.4.
